In PubChem BioAssay (NCI):
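1) Cells in 96-well plates. 2) Compound, 48 h, 5 concentrations. 3) Linear interpolation between surrounding doses. 4) Unreached endpoint = highest concentration. GI50 marks 50% less growth. TGI denotes the concentration required for complete inhibition of growth.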

How the values were obtained:
Assay in all cases: NCI tumour cell line growth inhibition, 48 h
SNB-78 CNS = test system: SNB-78 CNS
M19-MEL melanoma = test system: M19-MEL melanoma
DLD-1 colon = test system: DLD-1 colon
HOP-18 NSCLC = test system: HOP-18 NSCLC
LXFL 529 NSCLC = test system: LXFL 529 NSCLC
XF 498 CNS = test system: XF 498 CNS
RXF-631 renal = test system: RXF-631 renal
P388/ADR leukemia = test system: P388/ADR leukemia
P388 leukemia = test system: P388 leukemia
SN12K1 renal = test system: SN12K1 renal

Compound | TGI (SNB-78 CNS) [µM] | TGI (M19-MEL melanoma) [µM] | TGI (DLD-1 colon) [µM] | TGI (HOP-18 NSCLC) [µM] | TGI (LXFL 529 NSCLC) [µM] | TGI (XF 498 CNS) [µM] | TGI (RXF-631 renal) [µM] | TGI (P388/ADR leukemia) [µM] | TGI (P388 leukemia) [µM] | TGI (SN12K1 renal) [µM] | GI50 (HOP-18 NSCLC) [pM]
Brc1ccc(C[P+]2(c3ccccc3)CCCCC2)cc1 | 84.2 | 76.4 | > 100 | > 100 | > 100 |  |  |  |  |  | 
CCC1(N=[N+]=[N-])C(=O)c2ccccc2N(C)C1=O (configuration not stated) | > 100 | > 100 | > 100 | > 100 | > 100 |  |  |  |  |  | 
O=C(c1nc2ccc([N+](=O)[O-])cc2[nH]c1=O)C(O)c1ccc2c(c1)OCO2 (configuration not stated) |  | > 100 | > 100 | > 100 | > 100 |  |  |  |  |  | 
COc1ccc(C(=O)O[C@H]2[C@@H]3C=CO[C@@H](OC4OC(CO)C(O)C(O)C4O)[C@@H]3[C@@]3(CO)O[C@@H]23)cc1O (some centres not stated) | > 100 | > 100 | > 100 |  | > 100 | > 100 | > 100 |  |  |  | 
CCN(CC)CCCNc1ccc2nc(C)n3c4ccc(O)cc4c(=O)c1c23 | 19.6 | 23.8 | 16.2 | 25.7 | 19.3 | 23.3 | 17.4 |  |  |  | 
COc1ccc(C(c2c(O)c3ccccc3n(-c3ccccc3)c2=O)c2c(O)c3ccccc3n(-c3ccccc3)c2=O)cc1 | > 100 | > 100 | > 100 | > 100 | > 100 | > 100 |  |  |  |  | 
Cc1c2ccncc2cc2c1[nH]c1ccccc12 | 93.3 | 10.9 | 38.5 | 7.35 |  | 1.89 |  | 7.46 | 5.52 | 9.44 | 
CN(Cc1cnc2nc(N)nc(N)c2n1)c1ccc(C(=O)N[C@@H](CCC(=O)O)C(=O)O)cc1 | 213 | > 250 | > 250 |  | > 250 | 184 |  | 29.4 | 13.8 | 191 | 0.714
CCOc1ccc2[nH]c3c(C)c4ccncc4c(C)c3c2c1 | 3.12 | 3.1 | 1.96 |  | 1.98 | 2.16 | 2.61 |  |  |  | 
CC(=O)OCC1OC(n2cc(F)c(=O)[nH]c2=O)C(NC(=O)OCc2ccccc2)C(OC(C)=O)C1OC(C)=O (configuration not stated) | > 100 | > 100 | > 100 | > 100 |  | > 100 |  | > 100 | > 100 | > 100 | 
CN(C(=O)C12C3C4C5C3C1(C(=O)C13C6C7C8C6C1C8C73)C5C42)C(C)(C)C (configuration not stated) | > 50 | > 50 | > 34.7 | > 50 | > 50 | > 50 |  |  |  |  | 
NC1=C(NC(=O)Cc2ccccc2F)C(=O)c2ccccc2C1=O |  | 24.5 | 52.9 | > 100 |  |  |  |  |  |  | 
N#CN/C(N)=N/C/N=C(\N)NC#N | > 100 | > 100 | > 100 | > 100 | > 100 |  | > 100 |  |  |  | 
O=C1CC2CC3OC3[C@H]3c4cc5c(cc4C(=O)N1C23)OCO5 (some centres not stated) |  | > 100 |  |  | > 100 | > 100 |  |  |  |  | 
